Test results taken from PubChem BioAssay AID248 (DTP/NCI, 2004).
Where “and” joins values, the source holds several entries; their conditions need not be identical. Equal entries are not always repeated. Toxic doses and inconclusive results are not listed.

Tested on: L1210 leukemia ip in BDF1 mice, survival T/C
Assay: NCI In Vivo Anticancer Drug Screen. Data for tumor model L1210 Leukemia (intraperitoneal) in B6D2F1 (BDF1) mice
Conditions: higher = longer survival
Procedure, shortened: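 Tumor cells were implanted, animals were treated, and survival was followed. The result divides the treated measurement by the vehicle-control measurement.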

[1] = endpoint: mean survival time, dose: 100.0 mg/kg/injection, schedule: Q04DX003 (ip), vehicle: Klucel (hydroxypropylcellulose) (HPC)
[2] = endpoint: mean survival time, dose: 200.0 mg/kg/injection, schedule: Q04DX003 (ip), vehicle: Klucel (hydroxypropylcellulose) (HPC)
[3] = endpoint: mean survival time, dose: 400.0 mg/kg/injection, schedule: Q04DX003 (ip), vehicle: Klucel (hydroxypropylcellulose) (HPC)

Q: What does the source list for `O=C(O)C1CC(O)CN1` (stereo not drawn)?
A: T/C (endpoint: mean survival time, dose: 12.5 mg/kg/injection, schedule: Q04DX002 (ip), vehicle: saline): 110 % of control and 107 % of control; T/C (endpoint: mean survival time, dose: 25.0 mg/kg/injection, schedule: Q04DX002 (ip), vehicle: saline): 106 % of control and 97 % of control; T/C (endpoint: mean survival time, dose: 50.0 mg/kg/injection, schedule: Q04DX002 (ip), vehicle: saline): 100 % of control and 110 % of control; T/C (endpoint: median survival time, dose: 25.0 mg/kg/injection, schedule: Q01DX009 (ip), vehicle: saline): 102 % of control; T/C (endpoint: median survival time, dose: 50.0 mg/kg/injection, schedule: Q01DX009 (ip), vehicle: saline): 103 % of control; T/C (endpoint: median survival time, dose: 100.0 mg/kg/injection, schedule: Q01DX009 (ip), vehicle: saline): 108 % of control; T/C (endpoint: median survival time, dose: 200.0 mg/kg/injection, schedule: Q01DX009 (ip), vehicle: saline): 112 % of control; T/C (endpoint: median survival time, dose: 400.0 mg/kg/injection, schedule: Q01DX009 (ip), vehicle: saline): 114 % of control

Q: Which results are given for `COc1ccc(NC(=O)NCc2ccc(C)c(C)c2)cc1`?
A: T/C (endpoint: mean survival time, dose: 100.0 mg/kg/injection, schedule: Q04DX002 (ip), vehicle: Klucel (hydroxypropylcellulose) (HPC)): 118 % of control; T/C (endpoint: mean survival time, dose: 200.0 mg/kg/injection, schedule: Q04DX002 (ip), vehicle: Klucel (hydroxypropylcellulose) (HPC)): 96 % of control; T/C (endpoint: mean survival time, dose: 400.0 mg/kg/injection, schedule: Q04DX002 (ip), vehicle: Klucel (hydroxypropylcellulose) (HPC)): 104 % of control

Q: What does the source list for `O=C(O)C(Cl)c1ccccc1` (stereo not drawn)?
A: T/C (endpoint: mean survival time, dose: 25.0 mg/kg/injection, schedule: Q01DX009 (ip), vehicle: gum acacia): 114 % of control; T/C (endpoint: mean survival time, dose: 50.0 mg/kg/injection, schedule: Q01DX009 (ip), vehicle: gum acacia): 109 % of control; T/C (endpoint: mean survival time, dose: 100.0 mg/kg/injection, schedule: Q01DX009 (ip), vehicle: gum acacia): 106 % of control; T/C [1]: 92 % of control; T/C (endpoint: mean survival time, dose: 100.0 mg/kg/injection, schedule: Q04DX003 (ip), vehicle: saline with Tween-80): 95 % of control; T/C [2]: 93 % of control; T/C (endpoint: mean survival time, dose: 200.0 mg/kg/injection, schedule: Q04DX003 (ip), vehicle: saline with Tween-80): 101 % of control; T/C [3]: 97 % of control; T/C (endpoint: mean survival time, dose: 400.0 mg/kg/injection, schedule: Q04DX003 (ip), vehicle: saline with Tween-80): 88 % of control

Q: For `CC1=C(C(=O)O)CCCO1`, which T/C (endpoint: mean survival time, dose: 100.0 mg/kg/injection, schedule: Q01DX001 (ip), vehicle: saline) is on record?
A: 98 % of control

Q: And the T/C (endpoint: mean survival time, dose: 200.0 mg/kg/injection, schedule: Q01DX001 (ip), vehicle: saline)?
A: 98 % of control

Q: And the T/C (endpoint: mean survival time, dose: 400.0 mg/kg/injection, schedule: Q01DX001 (ip), vehicle: saline)?
A: 98 % of control

Q: With `Nc1nc(=S)c2ncn(C3OC(CO)CC3O)c2[nH]1` (stereo not drawn) as the compound, how does the T/C (endpoint: mean survival time, dose: 10.0 mg/kg/injection, schedule: Q01DX009 (ip), vehicle: other) read?
A: 160 % of control

Q: What about the T/C (endpoint: mean survival time, dose: 88.8 mg/kg/injection, schedule: Q01DX001 (ip), vehicle: carboxymethylcellulose (CMC)) of the same compound?
A: 162 % of control

Q: And the T/C (endpoint: mean survival time, dose: 200.0 mg/kg/injection, schedule: Q01DX001 (ip), vehicle: carboxymethylcellulose (CMC))?
A: 189 % of control

Q: Which results are given for `CCOC(=O)c1c(C)cn2c1OC(C)CC2(C)C` (stereo not drawn)?
A: T/C (endpoint: mean survival time, dose: 100.0 mg/kg/injection, schedule: Q01DX001 (ip), vehicle: Klucel (hydroxypropylcellulose) (HPC)): 105 % of control; T/C (endpoint: mean survival time, dose: 200.0 mg/kg/injection, schedule: Q01DX001 (ip), vehicle: Klucel (hydroxypropylcellulose) (HPC)): 94 % of control; T/C (endpoint: mean survival time, dose: 400.0 mg/kg/injection, schedule: Q01DX001 (ip), vehicle: Klucel (hydroxypropylcellulose) (HPC)): 96 % of control

Q: `CC1CN=C(c2ccc(O)cc2)S1` (stereo not drawn) was tested. Which T/C (endpoint: mean survival time, dose: 50.0 mg/kg/injection, schedule: Q01DX009 (ip), vehicle: saline) did it give?
A: 102 % of control

Q: What about the T/C (endpoint: mean survival time, dose: 100.0 mg/kg/injection, schedule: Q01DX005 (ip), vehicle: saline) of the same compound?
A: 104 % of control

Q: What about the T/C (endpoint: mean survival time, dose: 100.0 mg/kg/injection, schedule: Q01DX009 (ip), vehicle: saline) of the same compound?
A: 106 % of control

Q: What about the T/C (endpoint: mean survival time, dose: 100.0 mg/kg/injection, schedule: Q04DX002 (ip), vehicle: saline) of the same compound?
A: 96 % of control

Q: And the T/C (endpoint: mean survival time, dose: 200.0 mg/kg/injection, schedule: Q01DX005 (ip), vehicle: saline)?
A: 104 % of control

Q: And the T/C (endpoint: mean survival time, dose: 200.0 mg/kg/injection, schedule: Q01DX009 (ip), vehicle: saline)?
A: 102 % of control

Q: And the T/C (endpoint: mean survival time, dose: 200.0 mg/kg/injection, schedule: Q04DX002 (ip), vehicle: saline)?
A: 104 % of control

Q: What about the T/C (endpoint: mean survival time, dose: 400.0 mg/kg/injection, schedule: Q04DX002 (ip), vehicle: saline) of the same compound?
A: 107 % of control

Q: `Nc1ccc2nc(N)nc(N)c2c1` was tested. Which T/C (endpoint: mean survival time, dose: 37.5 mg/kg/injection, schedule: Q01DX009 (ip), vehicle: Klucel (hydroxypropylcellulose) (HPC)) did it give?
A: 121 % of control

Q: What about the T/C (endpoint: mean survival time, dose: 65.0 mg/kg/injection, schedule: Q04DX003 (ip), vehicle: Klucel (hydroxypropylcellulose) (HPC)) of the same compound?
A: 106 % of control

Q: What about the T/C (endpoint: mean survival time, dose: 75.0 mg/kg/injection, schedule: Q01DX009 (ip), vehicle: Klucel (hydroxypropylcellulose) (HPC)) of the same compound?
A: 107 % of control

Q: What about the T/C [1] of the same compound?
A: 112 % of control

Q: And the T/C (endpoint: mean survival time, dose: 150.0 mg/kg/injection, schedule: Q04DX003 (ip), vehicle: Klucel (hydroxypropylcellulose) (HPC))?
A: 112 % of control

Q: What does the source list for `Cc1ccc(S(=O)(=O)N(C)c2ccc3cc(Br)ccc3c2)cc1`?
A: T/C (endpoint: mean survival time, dose: 100.0 mg/kg/injection, schedule: Q01DX005 (ip), vehicle: Klucel (hydroxypropylcellulose) (HPC)): 94 % of control; T/C [1]: 95 % of control; T/C (endpoint: mean survival time, dose: 200.0 mg/kg/injection, schedule: Q01DX005 (ip), vehicle: Klucel (hydroxypropylcellulose) (HPC)): 100 % of control; T/C [2]: 97 % of control; T/C (endpoint: mean survival time, dose: 400.0 mg/kg/injection, schedule: Q01DX005 (ip), vehicle: Klucel (hydroxypropylcellulose) (HPC)): 91 % of control; T/C [3]: 97 % of control
